Test results from patent US8334316B2, “Substituted organosulfur compounds and methods of using thereof” (ACEA Biosciences, Inc., priority 2004, dated 2012).
Values joined by “and” are separate entries in the source; they are usually repeats but may differ in a detail not shown here. Equal values may be shown once. Marks after values point to notes of the source that are not given here.

What was measured:
mouse Lewis lung cancer = experiment: In vivo antitumor efficacy, mouse Lewis lung cancer model, Example 2 (DBTS, CTX, Taxol reference); details: for tumor inhibition rate %: vs normal saline control
[1] = system: Bcap-37 human breast cancer; experiment: Bcap-37 human breast cancer xenograft in nude mice, dosing from day 7 when tumors palpable (Example 5); format: in vivo; details: for Tumor Inhibition Rate C − T/C %: based on tumor weight; for Tumor Volume (g) X ± SD: end of study
Protocol: Only female mice were used in this study. […] The high, middle and low doses of ACEA100108 were 50, […] and 8 mg/kg/d, respectively.
Preparation and Administration of Test Compounds. […] Seven days after the tumor transplantation, the transplanted tumors grew to size sufficiently large that could be felt by hands when one touched the animal. […] The high, middle and low dose of ACEA100108 was 50, 20 and 8 mg/kg, respectively.
About seven days after the transplantation, tumors in the mice grew sufficiently large so that tumor could be felt by hands when one touched the animals.
For the human breast cancer xenograft model, all used materials, including animal food, animal cage, supporting materials and apparatus contacted by animals, were high-pressure sterilized. Nude mice were maintained in laminar flow shelves under SPF condition. After tumor transplantation, mouse weight and tumor size in each compound dosage group were dynamically monitored and recorded. The tumors size was determined by measuring the major axis (a) and minor axis (b) of the tumor, and tumor volume was calculated according to the equation (3) in Example 3.

[2] = system: A549 human lung cancer cells; experiment: Apoptosis: Annexin V-Cy3 / 6-CFDA staining of A549 cells; format: cell-based; details: 24 hrs
Protocol: The cells were incubated with the drugs for 24 hours and then washed 2× with PBS and 3× with binding buffer (10 mM HEPES, pH 7.5, 140 mM NaCl, 2.5 mM CaCl2). […] The cells were gently washed 3× in 1× binding buffer, mounted, viewed under immunofluorescent microscope and imaged using an attached CCD camera. Note that live cells show staining only with 6-CFDA (green), while necrotic cells will stain only with Annexin V-Cy3 (red). Cells starting the apoptotic process will stain both with AnnexinV-Cy3 and 6-CFDA.

[3] = system: A549 human lung cancer cells; experiment: Cell-cycle distribution by propidium iodide flow cytometry in A549 cells; format: cell-based; details: 24 hrs, vs DMSO
Protocol: Another in vitro assay may be used to evaluate the effect of compounds in arresting the cell cycle progression. More specifically, a test compound is added to cells of certain cell lines in a concentration-dependent manner. After cells are incubated for certain specific length of time, cells are stained using propidium iodide and are used for flow cytometric assessment. The cell populations of sub-G0/G1, G0/G1, S and G2/M phases are determined. All above in vitro assays are cell-based, single-time point (or multiple-time points using multiple plates) end-point assays.
Microtubules are extremely important in the process of mitosis, during which the duplicated chromosomes of a cell are separated into two identical sets before cleavage of the cell into two daughter cells. […] As consequence, cells will be arrested at G2/M phase.
In briefly, A549 cells were seeded at a density of 500,000 cells in 60 mm tissue culture dishes. Approximately 18 hours later the cells were treated with the indicated concentrations of anti-mitotic compounds and allowed to further incubate for 24 hours. The cells were washed in PBS, trypsinized, counted and fixed in ice-cold 70% methanol and stored at 4° C. The cells were washed with PBS, stained with propidium iodide and kept on ice until flow cytometry analysis.

[4] = system: ao10/17 human ovarian cancer; experiment: ao10/17 human ovarian cancer xenograft in nude mice (Example 4); format: in vivo
[5] = 20 mg/kg iv x7 qd, 0 d (beginning)

CC(=O)O[C@H]1C(=O)[C@@]2(C)[C@H]([C@H](OC(=O)c3ccccc3)[C@]3(O)C[C@H](OC(=O)[C@H](O)[C@@H](NC(=O)c4ccccc4)c4ccccc4)C(C)=C1C3(C)C)[C@]1(OC(C)=O)CO[C@@H]1C[C@@H]2O [Taxol, paclitaxel, reference compound]
Tumor weight (mouse Lewis lung cancer; 7.5 mg/kg/d iv x5 qd): 1.98 ± 0.14 g | tumor inhibition rate % (mouse Lewis lung cancer; 7.5 mg/kg/d iv x5 qd): 30.28% | Tumor weight (mouse Lewis lung cancer; 10 mg/kg/d iv x5 qd): 1.79 ± 0.09 g | tumor inhibition rate % (mouse Lewis lung cancer; 10 mg/kg/d iv x5 qd): 36.97% | Tumor weight (mouse Lewis lung cancer; 15 mg/kg/d iv x5 qd): 1.45 ± 0.14 g | tumor inhibition rate % (mouse Lewis lung cancer; 15 mg/kg/d iv x5 qd): 48.94% | Body weight of mice ([1]; 10 mg/kg iv x7 qd, 0 d (beginning)): 18.8 g and 18.8 ± 1 g | Body weight of mice ([1]; 10 mg/kg iv x7 qd, 7 d): 20.5 ± 1 g | Mice with palpable tumor / total mice ([1]; 10 mg/kg iv x7 qd, 7 d): 6/6†† | Tumor volume (cm^3) ([1]; 10 mg/kg iv x7 qd, 7 d after transplantation (start of dosing)): 0.01 cm^3 | Tumor volume (cm^3) ([1]; 10 mg/kg iv x7 qd, 14 d): 0.103 ± 0.02 cm^3 | Tumor volume (cm^3) ([1]; 10 mg/kg iv x7 qd, 21 d): 0.283 ± 0.05 cm^3 | Tumor volume (cm^3) ([1]; 10 mg/kg iv x7 qd, 24 d): 0.799 ± 0.23 cm^3 | Tumor Volume Inhibition T/C % ([1]; 10 mg/kg/d iv x7 qd): 44.33% | Tumor weight ([1]; 10 mg/kg/d iv x7 qd): 0.92 ± 0.07 g | Tumor Inhibition Rate C − T/C % ([1]; 10 mg/kg/d iv x7 qd): 41.03% | Annexin V staining (apoptosis) ([2]; 50 nM): strong staining of Annexin V | Cell population at G2/M phase ([3]; 7.8 nM): increased significantly | Mice with palpable tumor / total mice ([4]; 10 mg/kg iv x7 qd, 7 D after transplantation): 2/6

Fc1ccc(CSSSCc2ccc(F)cc2)cc1 [ACEA100108, Di(p-fluorobenzyl)trisulfide]
Body weight of mice ([1]; 8 mg/kg iv x7 qd, 0 d (beginning)): 18.5 g and 18.5 ± 1 g | Body weight of mice ([1]; 8 mg/kg iv x7 qd, 7 d): 19.8 ± 1.5 g | Mice with palpable tumor / total mice ([1]; 8 mg/kg iv x7 qd, 7 d): 6/6†† | Tumor volume (cm^3) ([1]; 8 mg/kg iv x7 qd, 7 d after transplantation (start of dosing)): 0.01 cm^3 | Body weight of mice ([1]; 8 mg/kg iv x7 qd, 14 d): 21.7 ± 1.4 g | Tumor volume (cm^3) ([1]; 8 mg/kg iv x7 qd, 14 d): 0.107 ± 0.02 cm^3 | Body weight of mice ([1]; 8 mg/kg iv x7 qd, 21 d): 23.2 ± 1.5 g | Tumor volume (cm^3) ([1]; 8 mg/kg iv x7 qd, 21 d): 0.27 ± 0.03 cm^3 | Tumor volume (cm^3) ([1]; 8 mg/kg iv x7 qd, 24 d): 0.962 ± 0.23 cm^3 | Body weight of mice ([1]; 8 mg/kg iv x7 qd, 24 d (end)): 24.0 g and 24 ± 1.4 g | Tumor Volume Inhibition T/C % ([1]; 8 mg/kg/d iv x7 qd): 53.38% | Tumor weight ([1]; 8 mg/kg/d iv x7 qd): 1.12 ± 0.18 g | Tumor Inhibition Rate C − T/C % ([1]; 8 mg/kg/d iv x7 qd): 28.21% | Tumor Volume (g) X ± SD ([1]; 8 mg/kg/d iv x7 qd): 0.962 ± 0.23*** cm^3 | Body weight of mice [1, 5]: 18.8 ± 1.2 g | Body weight of mice ([1]; 20 mg/kg iv x7 qd, 7 d): 19.5 ± 1 g | Mice with palpable tumor / total mice ([1]; 20 mg/kg iv x7 qd, 7 d): 6/6†† | Tumor volume (cm^3) ([1]; 20 mg/kg iv x7 qd, 7 d after transplantation (start of dosing)): 0.01 cm^3 | Body weight of mice ([1]; 20 mg/kg iv x7 qd, 14 d): 21.2 ± 1.5 g | Tumor volume (cm^3) ([1]; 20 mg/kg iv x7 qd, 14 d): 0.087 ± 0.01 cm^3 | Body weight of mice ([1]; 20 mg/kg iv x7 qd, 21 d): 22.3 ± 1.6 g | Tumor volume (cm^3) ([1]; 20 mg/kg iv x7 qd, 21 d): 0.23 ± 0.04 cm^3 | Tumor volume (cm^3) ([1]; 20 mg/kg iv x7 qd, 24 d): 0.74 ± 0.18 cm^3 | Body weight of mice ([1]; 20 mg/kg iv x7 qd, 24 d (end)): 24.3 g and 24.3 ± 0.8 g | Tumor Volume Inhibition T/C % ([1]; 20 mg/kg/d iv x7 qd): 41.06% | Tumor weight ([1]; 20 mg/kg/d iv x7 qd): 0.822 ± 0.12 g | Tumor Inhibition Rate C − T/C % ([1]; 20 mg/kg/d iv x7 qd): 47.31% | Tumor Volume (g) X ± SD ([1]; 20 mg/kg/d iv x7 qd): 0.740 ± 0.18*** cm^3 | Body weight of mice ([1]; 50 mg/kg iv x7 qd, 0 d (beginning)): 18.2 g and 18.2 ± 1.2 g | Body weight of mice ([1]; 50 mg/kg iv x7 qd, 7 d): 19.3 ± 1 g | Mice with palpable tumor / total mice ([1]; 50 mg/kg iv x7 qd, 7 d): 6/6†† | Tumor volume (cm^3) ([1]; 50 mg/kg iv x7 qd, 7 d after transplantation (start of dosing)): 0.01 cm^3 | Body weight of mice ([1]; 50 mg/kg iv x7 qd, 14 d): 20.7 ± 1.2 g | Tumor volume (cm^3) ([1]; 50 mg/kg iv x7 qd, 14 d): 0.049 ± 0.02 cm^3 | Body weight of mice ([1]; 50 mg/kg iv x7 qd, 21 d): 21.8 ± 1.5 g | Tumor volume (cm^3) ([1]; 50 mg/kg iv x7 qd, 21 d): 0.169 ± 0.03 cm^3 | Tumor volume (cm^3) ([1]; 50 mg/kg iv x7 qd, 24 d): 0.485 ± 0.06 cm^3 | Body weight of mice ([1]; 50 mg/kg iv x7 qd, 24 d (end)): 22.8 g and 22.8 ± 1.5 g | Body weight of mice ([1]; 50 mg/kg iv x10 qd, 0 d (beginning)): 18.8 g and 18.8 ± 1 g | Body weight of mice ([1]; 50 mg/kg iv x10 qd, 7 d): 19.7 ± 1 g | Mice with palpable tumor / total mice ([1]; 50 mg/kg iv x10 qd, 7 d): 6/6†† | Tumor volume (cm^3) ([1]; 50 mg/kg iv x10 qd, 7 d after transplantation (start of dosing)): 0.01 cm^3 | Body weight of mice ([1]; 50 mg/kg iv x10 qd, 14 d): 20.3 ± 1.4 g | Tumor volume (cm^3) ([1]; 50 mg/kg iv x10 qd, 14 d): 0.048 ± 0.03 cm^3 | Body weight of mice ([1]; 50 mg/kg iv x10 qd, 21 d): 21.5 ± 1.8 g | Tumor volume (cm^3) ([1]; 50 mg/kg iv x10 qd, 21 d): 0.114 ± 0.02 cm^3 | Tumor volume (cm^3) ([1]; 50 mg/kg iv x10 qd, 24 d): 0.28 ± 0.04 cm^3 | Body weight of mice ([1]; 50 mg/kg iv x10 qd, 24 d (end)): 21.2 g and 21.2 ± 1.2 g | Tumor Volume Inhibition T/C % ([1]; 50 mg/kg/d iv x7 qd): 26.91% | Tumor weight ([1]; 50 mg/kg/d iv x7 qd): 0.745 ± 0.10 g | Tumor Volume (g) X ± SD ([1]; 50 mg/kg/d iv x7 qd): 0.485 ± 0.06*** cm^3 | Tumor Volume Inhibition T/C % ([1]; 50 mg/kg/d iv x10 qd): 15.53% | Tumor weight ([1]; 50 mg/kg/d iv x10 qd): 0.672 ± 0.10 g | Tumor Inhibition Rate C − T/C % ([1]; 50 mg/kg/d iv x10 qd): 56.92% | Tumor Volume (g) X ± SD ([1]; 50 mg/kg/d iv x10 qd): 0.280 ± 0.04*** cm^3 | Annexin V staining (apoptosis) ([2]; 1 uM): strong staining of Annexin V | Cell population at G2/M phase ([3]; 25 uM): increased significantly | Body weight of mice [4, 5]: 17.2 g and 17.2 ± 1.2 g
